pIC50: −log10 of the molar value. Where two headings read alike, the source gives them in different places.
Experiments:
[1] = system: HT-29 human colon cancer cells; test: In vitro antiproliferative activity (resazurin, 96 h); assay type: cell-based; settings: read-out: IC50 grade of inhibitory effect on tumor cells, HT-29
Protocol: (§1) Objective: to test the antiproliferative activity of the compound in the present disclosure against a variety of tumor cells. […] Amonafide and lomustine were commercially available. Test cells: human colon cancer cells (HT-29, COLO 205), human lung cancer cells (NCI-H460, A549), and human leukemia cells (HL-60, U-937). Test methods: each tumor cell was processed separately. Cells were cultured in a culture medium at 37° C. for 24 h for later use. The cells in the exponential growth phase were harvested, treated with trypsin to prepare a cell suspension, the cell suspension was centrifuged, and then the cell pellet was resuspended in a small amount of fresh culture medium as a stock cell solution. A 96-well plate was taken, and blank control groups, cell control groups and compound treatment groups were set up. […] The remaining wells were filled with 200 μL of 10% PBS. The plate was placed in an incubator overnight. 100 μL of each test compound at different dilution concentrations was added into each well of the compound treatment groups, 10 and the dilution concentrations of the compound were as shown in Table 2. […] After adding the drug, the plate was placed in an incubator to be cultured for 96 hours, 22 μL of resazurin sodium solution (Alarm blue, SIGMA R7017) was added into each well, and the plate was returned to the incubator to be cultured for another 4 h. The plate was shaken for 10 s after being taken out. A fluorescence value of each well was tested at 530/590 nm. The above operations were repeated for three times. The IC50 value of each test compound was calculated with the Prism7 software. The IC50 was divided into different grades according to value, that is: […]

[2] = system: NCI-H460 human lung cancer cells; test: as above; assay type: cell-based; settings: read-out: IC50 grade of inhibitory effect on tumor cells, NCI-H460
Protocol: as §1

[3] = system: HL-60 human leukemia cells; test: as above; assay type: cell-based; settings: read-out: IC50 grade of inhibitory effect on tumor cells, HL-60
Protocol: as §1

[4] = system: COLO 205 human colon cancer cells; test: as above; assay type: cell-based; settings: read-out: IC50 grade of inhibitory effect on tumor cells, COLO 205
Protocol: as §1

[5] = system: A549 human lung cancer cells; test: as above; assay type: cell-based; settings: read-out: IC50 grade of inhibitory effect on tumor cells, A549
Protocol: as §1

[6] = system: U-937 human leukemia cells; test: as above; assay type: cell-based; settings: read-out: IC50 grade of inhibitory effect on tumor cells, U-937
Protocol: as §1

[7] = system: COLO 205 transplanted tumor; test: In vivo antitumor effect in COLO 205 transplanted tumor model; design: species or system BALB/c nude mice; settings: nude mice, COLO 205 xenograft, intragastric 10 mg/kg once a day, 21 times, last day
Protocol: Objective: to further test the in vivo antitumor effects of compounds of the present disclosure
Test compounds: I-01, I-08.
Test animals: 5-week-old female BALB/c nude mice were fed normally for 7 days, and mice with good physical conditions were selected for experiments.
Tumor cells: human colon cancer cells COLO 205 were subjected to cell culture in a RPMI-1640 medium containing 10% fetal bovine serum. The passaging was carried out for 1-2 times a week, with a passaging ratio of 1:3 to 1:6.
Modeling and grouping: COLO 205 cells in a logarithmic growth phase were harvested and injected into the anterior right mammary fat pad of nude mice with an injection volume of 5×10^6 cells per animal to establish a COLO 205 transplanted tumor model. The animal status was observed regularly, tumor diameter was measured, and tumor volume was calculated. After the tumor volume reached approximately 150 mm^3, tumor-bearing mice in good health and with similar tumor volumes were selected and randomly divided into a solvent control group, an I-01 group, and an I-08 group.
Administration: each test compound was dissolved in solvent, and each animal group was treated with corresponding compounds or blank solvent, respectively. The administration method was intragastric administration, with a dosage of 10 mg/kg, once a day, and a total of 21 times.
Result: on the last day of the experiment, tumor diameter and tumor weight were measured, tumor growth inhibition rate (GI) and tumor weight inhibition rate (IR) were calculated.
Tumor growth inhibition rate=100%×[1−(Tvt−Tvini)÷(Cvt−Cvini)], where Tvt represents tumor volume of the treatment group at the end of the experiment, Tvini represents initial tumor volume of the treatment group, Cvt represents tumor volume of the solvent control group at the end of the experiment, and Cvini represents initial tumor volume of the solvent control group.
Tumor weight inhibition rate=100%×(Cw−Tw)÷Cw, where Cw represents tumor weight of the solvent control group at the end of the experiment, and Tw represents tumor weight of the treatment group at the end of the experiment.

[8] = Homo sapiens, HT-29, 96 h culture, resazurin fluorescence
[9] = Homo sapiens, NCI-H460, 96 h culture, resazurin fluorescence
[10] = Homo sapiens, HL-60, 96 h culture, resazurin fluorescence
[11] = Homo sapiens, COLO 205, 96 h culture, resazurin fluorescence
[12] = Homo sapiens, A549, 96 h culture, resazurin fluorescence
[13] = Homo sapiens, U-937, 96 h culture, resazurin fluorescence
[14] = HT-29, 96 h culture, resazurin fluorescence
[15] = NCI-H460, 96 h culture, resazurin fluorescence
[16] = HL-60, 96 h culture, resazurin fluorescence
[17] = COLO 205, 96 h culture, resazurin fluorescence
[18] = A549, 96 h culture, resazurin fluorescence
[19] = U-937, 96 h culture, resazurin fluorescence

| Compound | pIC50 [1, 8] | pIC50 [2, 9] | pIC50 [3, 10] | pIC50 [4, 11] | pIC50 [5, 12] | pIC50 [6, 13] | other results |
| --- | --- | --- | --- | --- | --- | --- | --- |
| CN(C)CCN1C(=O)c2cccc3cc(N)cc(c23)C1=O [Amonafide] | 4.70 to 4.96 | 4.70 to 4.96 | 5.00 to 5.30 | 5.00 to 5.30 | 5.30 to 6.00 | 4.70 to 4.96 | – |
| O=NN(CCCl)C(=O)NCCN1C(=O)c2cccc3cc([N+](=O)[O-])cc(c23)C1=O [Compound 1] | – | – | – | – | – | – | pIC50 ([1]; Homo sapiens, HT-29, 96 h): 4.30 to 4.68; pIC50 ([2]; Homo sapiens, NCI-H460, 96 h): 4.70 to 4.96; pIC50 ([3]; Homo sapiens, HL-60, 96 h): 4.70 to 4.96; pIC50 ([4]; Homo sapiens, COLO 205, 96 h): 4.30 to 4.68; pIC50 ([5]; Homo sapiens, A549, 96 h): 5.00 to 5.30; pIC50 ([6]; Homo sapiens, U-937, 96 h): 4.30 to 4.68 |
| CCN(CC)C(=O)N(C)CCNCN1C(=O)c2cccc3c(OC)ccc(c23)C1=O [Compound I-06] | 5.30 to 6.00 | 5.00 to 5.30 | 5.30 to 6.00 | 5.00 to 5.30 | 5.30 to 6.00 | 5.30 to 6.00 | – |
| O=NN(CCCl)C(=O)NC1CCCCC1 [Lomustine] | 4.00 to 4.29 | 4.00 to 4.29 | 4.30 to 4.68 | < 4.00 | < 4.00 | 4.70 to 4.96 | – |
| O=NN(CCCl)C(=O)N1CCN(CCN2C(=O)c3cccc4cc([N+](=O)[O-])cc(c34)C2=O)CC1 [Compound I-08] | – | – | – | – | – | – | pIC50 [1, 14]: 5.30 to 6.00; pIC50 [2, 15]: 5.30 to 6.00; pIC50 [3, 16]: 5.30 to 6.00; pIC50 [4, 17]: 6.00 to 6.30; pIC50 [5, 18]: 6.00 to 6.30; pIC50 [6, 19]: 6.00 to 6.30; Tumor growth inhibition rate (%) [7]: 43.5%; Tumor weight inhibition rate (%) [7]: 31.2% |
| CCN(CCNC(=O)N(C)CC)CCN1C(=O)c2cccc3cc([N+](=O)[O-])cc(c23)C1=O [Compound I-04] | 5.30 to 6.00 | 5.30 to 6.00 | 5.30 to 6.00 | 5.00 to 5.30 | 5.30 to 6.00 | 5.30 to 6.00 | – |
| CN(CCNC(=O)N(CCCl)N=O)CCN1C(=O)c2cccc3cc([N+](=O)[O-])cc(c23)C1=O [Compound I-01] | – | – | – | – | – | – | pIC50 [1, 14]: > 6.30; pIC50 [2, 15]: > 6.30; pIC50 [3, 16]: > 6.30; pIC50 [4, 17]: > 6.30; pIC50 [5, 18]: 6.00 to 6.30; pIC50 [6, 19]: > 6.30; Tumor growth inhibition rate (%) [7]: 75.3%; Tumor weight inhibition rate (%) [7]: 69.3% |
| CC(C)(C)OC(=O)NCCCNCCCN1C(=O)c2cccc3cc([N+](=O)[O-])cc(c23)C1=O [Cob281] | 5.00 to 5.30 | 4.70 to 4.96 | 5.00 to 5.30 | 4.70 to 4.96 | 5.00 to 5.30 | 5.00 to 5.30 | – |
| O=NN(CCCl)C(=O)NCCCCN1C(=O)c2cccc3cccc(c23)C1=O [Compound 1d] | – | – | – | – | – | – | pIC50 ([1]; Homo sapiens, HT-29, 96 h): 4.30 to 4.68; pIC50 ([2]; Homo sapiens, NCI-H460, 96 h): 4.00 to 4.29; pIC50 ([3]; Homo sapiens, HL-60, 96 h): 4.30 to 4.68; pIC50 ([4]; Homo sapiens, COLO 205, 96 h): 4.30 to 4.68; pIC50 ([5]; Homo sapiens, A549, 96 h): 4.30 to 4.68; pIC50 ([6]; Homo sapiens, U-937, 96 h): 4.70 to 4.96 |
| CC(C)(C)OC(=O)NCCCN1CCN(CCCN2C(=O)c3cccc4cc([N+](=O)[O-])cc(c34)C2=O)CC1 [Cob280] | 5.00 to 5.30 | 4.70 to 4.96 | 5.00 to 5.30 | 4.70 to 4.96 | 4.70 to 4.96 | 5.00 to 5.30 | – |
| CN(C)C(=O)N(C)CCCNCN1C(=O)c2cccc3cccc(c23)C1=O [Compound I-07] | 5.00 to 5.30 | 5.30 to 6.00 | 5.30 to 6.00 | 5.30 to 6.00 | 5.00 to 5.30 | 5.00 to 5.30 | – |
